Experimental data as given in PubChem BioAssay (NCI).
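The concentration for 50% growth inhibition is given as GI50. The concentration for full growth arrest is given as TGI.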

Legend:
Assay in all cases: NCI-60 cell line screen, 384-well format
IGROV1 ovarian = test system: IGROV1 ovarian
RPMI-8226 leukemia = test system: RPMI-8226 leukemia
U251 glioblastoma = test system: U251 glioblastoma
OVCAR-4 ovarian = test system: OVCAR-4 ovarian
EKVX NSCLC = test system: EKVX NSCLC
TK-10 renal = test system: TK-10 renal
T-47D breast = test system: T-47D breast
A549 NSCLC = test system: A549 NSCLC
HOP-62 NSCLC = test system: HOP-62 NSCLC
SF-295 CNS = test system: SF-295 CNS
M14 melanoma = test system: M14 melanoma
NCI-H322M lung = test system: NCI-H322M lung
SK-MEL-28 melanoma = test system: SK-MEL-28 melanoma
MDA-MB-435 melanoma = test system: MDA-MB-435 melanoma
HL-60(TB) leukemia = test system: HL-60(TB) leukemia
NCI-H460 NSCLC = test system: NCI-H460 NSCLC
HOP-92 NSCLC = test system: HOP-92 NSCLC
SW-620 colon = test system: SW-620 colon
MCF7 breast = test system: MCF7 breast
MALME-3M melanoma = test system: MALME-3M melanoma
PC-3 prostate = test system: PC-3 prostate
DU-145 prostate = test system: DU-145 prostate
NCI-H522 lung = test system: NCI-H522 lung
UO-31 renal = test system: UO-31 renal
MOLT-4 leukemia = test system: MOLT-4 leukemia
NCI-H226 lung = test system: NCI-H226 lung
OVCAR-3 ovarian = test system: OVCAR-3 ovarian
NCI-H23 lung = test system: NCI-H23 lung
HCT-15 colon = test system: HCT-15 colon
UACC-62 melanoma = test system: UACC-62 melanoma
SF-268 CNS = test system: SF-268 CNS
SK-OV-3 ovarian = test system: SK-OV-3 ovarian
CCRF-CEM leukemia = test system: CCRF-CEM leukemia
SN12C renal = test system: SN12C renal
786-0 renal = test system: 786-0 renal
OVCAR-5 ovarian = test system: OVCAR-5 ovarian
SNB-19 CNS = test system: SNB-19 CNS
HT29 colon = test system: HT29 colon
MDA-MB-468 breast = test system: MDA-MB-468 breast
BT-549 breast = test system: BT-549 breast
A498 renal = test system: A498 renal
UACC-257 melanoma = test system: UACC-257 melanoma
SF-539 CNS = test system: SF-539 CNS
COLO 205 colon = test system: COLO 205 colon
HCT-116 colon = test system: HCT-116 colon
ACHN renal = test system: ACHN renal
LOX IMVI melanoma = test system: LOX IMVI melanoma
HS 578T breast = test system: HS 578T breast
SK-MEL-5 melanoma = test system: SK-MEL-5 melanoma
SNB-75 CNS = test system: SNB-75 CNS
RXF 393 renal = test system: RXF 393 renal
CAKI-1 renal = test system: CAKI-1 renal
HCC-2998 colon = test system: HCC-2998 colon
KM12 colon = test system: KM12 colon
NCI/ADR-RES ovarian = test system: NCI/ADR-RES ovarian
OVCAR-8 ovarian = test system: OVCAR-8 ovarian
MDA-MB-231 breast = test system: MDA-MB-231 breast

## COc1cc2ncnc(Oc3cccc(NC(=O)Nc4cc(C(C)(C)C(F)(F)F)on4)c3)c2cc1OC
IGROV1 ovarian
  GI50: 222 nM
  TGI: 1270 nM
RPMI-8226 leukemia
  GI50: 1760 nM
  TGI: 3140 nM
U251 glioblastoma
  GI50: 1670 nM
  TGI: 3170 nM
OVCAR-4 ovarian
  GI50: 3140 nM
  TGI: 12400 nM
EKVX NSCLC
  GI50: 1050 nM
  TGI: 3290 nM
TK-10 renal
  GI50: 1690 nM
  TGI: 4030 nM
T-47D breast
  GI50: 1110 nM
  TGI: 3440 nM
A549 NSCLC
  GI50: 1260 nM
  TGI: 5570 nM
HOP-62 NSCLC
  GI50: 1530 nM
  TGI: 3010 nM
SF-295 CNS
  GI50: 2060 nM
  TGI: 4520 nM
M14 melanoma
  GI50: 19.3 nM
  TGI: 214 nM
NCI-H322M lung
  GI50: 865 nM
  TGI: 5180 nM
SK-MEL-28 melanoma
  GI50: 35.1 nM
  TGI: 541 nM
MDA-MB-435 melanoma
  GI50: 118 nM
  TGI: 1940 nM
HL-60(TB) leukemia
  GI50: 309 nM
  TGI: 1750 nM
NCI-H460 NSCLC
  GI50: 1540 nM
  TGI: 4460 nM
HOP-92 NSCLC
  GI50: 1260 nM
  TGI: 2550 nM
SW-620 colon
  GI50: 1180 nM
  TGI: 3670 nM
MCF7 breast
  GI50: 1970 nM
  TGI: 7650 nM
MALME-3M melanoma
  GI50: 14.6 nM
  TGI: 69.3 nM
PC-3 prostate
  GI50: 2510 nM
  TGI: 5730 nM
DU-145 prostate
  GI50: 2790 nM
  TGI: 11000 nM
NCI-H522 lung
  GI50: 242 nM
  TGI: 1610 nM
UO-31 renal
  GI50: 976 nM
  TGI: 3150 nM
MOLT-4 leukemia
  GI50: 1110 nM
  TGI: 2310 nM
NCI-H226 lung
  GI50: 384 nM
  TGI: 7550 nM
OVCAR-3 ovarian
  GI50: 1750 nM
  TGI: 4600 nM
NCI-H23 lung
  GI50: 168 nM
  TGI: 1470 nM
HCT-15 colon
  GI50: 1860 nM
  TGI: 6280 nM
UACC-62 melanoma
  GI50: 17.8 nM
  TGI: 267 nM
SF-268 CNS
  GI50: 216 nM
  TGI: 1100 nM
SK-OV-3 ovarian
  GI50: 871 nM
  TGI: 3140 nM
CCRF-CEM leukemia
  GI50: 1450 nM
  TGI: 2770 nM
SN12C renal
  GI50: 850 nM
  TGI: 3280 nM
786-0 renal
  GI50: 1520 nM
  TGI: 3770 nM
OVCAR-5 ovarian
  GI50: 1080 nM
  TGI: 4570 nM
SNB-19 CNS
  GI50: 4200 nM
  TGI: 14000 nM
HT29 colon
  GI50: 174 nM
  TGI: 1650 nM
MDA-MB-468 breast
  GI50: 747 nM
  TGI: 2310 nM
BT-549 breast
  GI50: 1660 nM
  TGI: 3080 nM
A498 renal
  GI50: 810 nM
  TGI: 5310 nM
UACC-257 melanoma
  GI50: 57.5 nM
  TGI: 667 nM
SF-539 CNS
  GI50: 1350 nM
  TGI: 2780 nM
COLO 205 colon
  GI50: 48.1 nM
  TGI: 1590 nM
HCT-116 colon
  GI50: 581 nM
  TGI: 1970 nM
ACHN renal
  GI50: 399 nM
  TGI: 2390 nM
LOX IMVI melanoma
  GI50: 187 nM
  TGI: 1020 nM
HS 578T breast
  GI50: 1540 nM
  TGI: 2990 nM
SK-MEL-5 melanoma
  GI50: 206 nM
  TGI: 1720 nM
SNB-75 CNS
  GI50: 1860 nM
  TGI: 3950 nM
RXF 393 renal
  GI50: 1540 nM
  TGI: 3440 nM
CAKI-1 renal
  GI50: 613 nM
  TGI: 3600 nM
HCC-2998 colon
  GI50: 1230 nM
  TGI: 2570 nM
KM12 colon
  GI50: 1920 nM
  TGI: 4430 nM
NCI/ADR-RES ovarian
  GI50: 2030 nM
  TGI: 4780 nM
OVCAR-8 ovarian
  GI50: 2300 nM
  TGI: 9640 nM
MDA-MB-231 breast
  GI50: 192 nM
  TGI: 3980 nM
